Data: patent US20250059198A1, “BRM DEGRADING COMPOUNDS AND ASSOCIATED METHODS OF USE” (Arvinas Operations, Inc., priority 2021, published 2025)

Target: T1, BRM (Homo sapiens, UniProt P51531)
T1 construct: Western Blot Screen of BRM Degradation in SW1573 Cells; endogenous in cells; host or cells: SW1573 cells
Test: BRM degradation (Dmax and DC50) in SW1573 cells, Western blot screen / In-Cell Western screen
Type: cell-based
Settings: overnight (18-20 hours) treatment; for Dmax: read-out: Dmax (%)** (% degraded)
How it was run: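 Dmax and DC50 were derived from BRM levels normalised to an alpha-tubulin control, measured by chemiluminescent Western blotting of lysates or by PFA-fixed In-Cell Western on LI-COR Odyssey. SW1573 cells received compound overnight (18–20 h, 0.1% DMSO final).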

T1 sequence (P51531 whole entry): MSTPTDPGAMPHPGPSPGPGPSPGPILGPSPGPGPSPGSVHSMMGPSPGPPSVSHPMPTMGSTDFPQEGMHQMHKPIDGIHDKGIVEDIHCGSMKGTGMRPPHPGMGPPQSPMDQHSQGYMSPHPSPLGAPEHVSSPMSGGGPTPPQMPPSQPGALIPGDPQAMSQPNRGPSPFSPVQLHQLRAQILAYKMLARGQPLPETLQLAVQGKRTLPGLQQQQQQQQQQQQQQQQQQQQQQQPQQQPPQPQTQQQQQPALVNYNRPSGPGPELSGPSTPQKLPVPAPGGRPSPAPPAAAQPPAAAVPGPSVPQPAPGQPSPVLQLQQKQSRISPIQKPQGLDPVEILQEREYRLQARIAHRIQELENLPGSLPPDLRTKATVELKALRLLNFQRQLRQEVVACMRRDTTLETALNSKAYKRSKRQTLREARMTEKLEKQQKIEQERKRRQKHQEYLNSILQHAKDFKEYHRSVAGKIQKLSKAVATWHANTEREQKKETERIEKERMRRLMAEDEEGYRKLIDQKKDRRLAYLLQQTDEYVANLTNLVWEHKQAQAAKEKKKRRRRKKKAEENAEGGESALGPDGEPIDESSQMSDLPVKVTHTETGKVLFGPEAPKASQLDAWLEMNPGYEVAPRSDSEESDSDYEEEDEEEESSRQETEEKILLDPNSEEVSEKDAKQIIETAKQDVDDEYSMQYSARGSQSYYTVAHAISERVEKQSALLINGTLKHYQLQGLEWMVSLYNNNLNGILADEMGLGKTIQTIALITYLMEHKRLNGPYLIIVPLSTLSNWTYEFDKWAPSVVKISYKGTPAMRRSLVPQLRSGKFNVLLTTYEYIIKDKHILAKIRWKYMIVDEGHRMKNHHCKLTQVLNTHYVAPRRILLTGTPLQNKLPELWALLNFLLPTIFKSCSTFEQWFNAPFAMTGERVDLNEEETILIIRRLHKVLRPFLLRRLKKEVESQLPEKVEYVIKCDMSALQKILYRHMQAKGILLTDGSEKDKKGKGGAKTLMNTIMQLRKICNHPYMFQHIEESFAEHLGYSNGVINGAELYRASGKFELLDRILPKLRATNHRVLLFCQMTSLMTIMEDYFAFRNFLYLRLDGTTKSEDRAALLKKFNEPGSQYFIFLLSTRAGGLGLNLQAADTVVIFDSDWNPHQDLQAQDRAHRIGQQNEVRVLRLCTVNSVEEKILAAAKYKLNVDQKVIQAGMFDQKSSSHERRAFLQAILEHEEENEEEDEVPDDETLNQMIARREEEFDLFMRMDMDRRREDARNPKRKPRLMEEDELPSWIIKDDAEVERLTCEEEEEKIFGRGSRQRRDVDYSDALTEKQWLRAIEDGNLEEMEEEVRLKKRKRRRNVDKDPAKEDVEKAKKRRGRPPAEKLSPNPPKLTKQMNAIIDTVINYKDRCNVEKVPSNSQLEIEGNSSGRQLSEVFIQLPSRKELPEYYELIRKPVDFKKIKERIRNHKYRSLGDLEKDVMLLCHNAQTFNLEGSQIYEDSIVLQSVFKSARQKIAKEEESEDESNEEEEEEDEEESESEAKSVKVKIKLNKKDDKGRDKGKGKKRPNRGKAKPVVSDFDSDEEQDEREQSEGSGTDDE

Structure (SMILES)	DC50 [nM]	Dmax [%]
CC(C)[C@@H](C(=O)N1C[C@H](O)C[C@H]1C(=O)N[C@@H](C)c1ccc(C#N)cc1)c1cc(N2CCC(CN3CC[C@H](Oc4cc(N5C6CCC5CN(c5cc(-c7ccccc7O)nnc5N)C6)ccn4)[C@H](F)C3)CC2)no1 [Compound 156, (2S,4R)-1-[(2R)-2-[3-(4-{[(3R,4S)-4-[(4-{3-[3-amino-6-(2-hydroxyphenyl)pyridazin-4-yl]-3,8-diazabicyclo[3.2.1]octan-8-yl}pyridin-2-yl)oxy]-3-fluoropiperidin-1-yl]methyl}piperidin-1-yl)-1,2-oxazol-5-yl]-3-methylbutanoyl]-N-[(1S)-1-(4-cyanophenyl)ethyl]-4-hydroxypyrrolidine-2-carboxamide]	< 2.5	> 75
Cc1ncsc1-c1ccc([C@H](C)NC(=O)[C@@H]2C[C@@H](O)CN2C(=O)[C@H](c2cc(N3CCC(C4(N5CCC(O[C@H]6C[C@H](Oc7cc(N8C9CCC8CN(c8cc(-c%10ccccc%10O)nnc8N)C9)ccn7)C6)CC5)CC4)CC3)no2)C(C)C)cc1 [Compound 13, (2S,4R)-4-hydroxy-N-[(3S)-3-[4-(4-methyl-3,3-thiazol-5-yl)phenyl]ethyl]-3-[(2S)-3-methyl-2-{3-[4-(3-{4-[(1r,3r)-3-[(4-{3-[3-amino-6-(2-hydroxyphenyl)pyridazin-4-yl]-3,8-diazabicyclo[3.2.3]octan-8-yl}pyridin-2-yl)oxy]cyclobutoxy]piperidin-1-yl}cyclopropyl)piperidin-1-yl]-1,2-oxazol-5-yl}butanoyl]pyrrolidine-2-carboxamide]	≥ 30	
Cc1ncsc1-c1ccc([C@H](C)NC(=O)[C@@H]2C[C@@H](O)CN2C(=O)[C@@H](c2cc(N3CCC(CN4CCC5(CC4)CC(N4CCC(F)(F)C(CN6C7CCC6CN(c6cc(-c8ccccc8O)nnc6N)C7)C4)C5)CC3)no2)C(C)C)cc1 (stereo partly drawn) [Compound 120, (2S,4R)-1-[(2R)-2-{3-[4-({2-[3-({3-[3-amino-6-(2-hydroxyphenyl)pyridazin-4-yl]-3,8-diazabicyclo[3.2.1]octan-8-yl}methyl)-4,4-difluoropiperidin-1-yl]-7-azaspiro[3.5]nonan-7-yl}methyl)piperidin-1-yl]-1,2-oxazol-5-yl}-3-methylbutanoyl]-4-hydroxy-N-[(1S)-1-[4-(4-methyl-1,3-thiazol-5-yl)phenyl]ethyl]pyrrolidine-2-carboxamide]	< 2.5	> 75
Cc1ncsc1-c1ccc([C@H](C)NC(=O)C2C[C@@H](O)CN2C(=O)[C@@H](c2cc(N3CCC(CN4CC[C@@H](Oc5cc(N6C7CCC6CN(c6cc(-c8ccccc8O)nnc6N)C7)ccn5)C(F)(F)C4)CC3)no2)C(C)C)cc1 (stereo in doubt) [Compound 53, (2S,4R)-1-[(2R)-2-[3-(4-{[(4R)-4-[(4-{3-[3-amino-6-(2-hydroxyphenyl)pyridazin-4-yl]-3,8-diazabicyclo[3.2.1]octan-8-yl}pyridin-2-yl)oxy]-3,3-difluoropiperidin-1-yl]methyl}piperidin-1-yl)-1,2-oxazol-5-yl]-3-methylbutanoyl]-4-hydroxy-N-[(1S)-1-[4-(4-methyl-1,3-thiazol-5-yl)phenyl]ethyl]pyrrolidine-2-carboxamide]	2.5 to 10	> 75
CC(C)[C@@H](C(=O)N1C[C@H](O)C[C@H]1C(=O)N[C@@H](C)c1ccc(Cl)cc1)c1cc(N2CCC(CN3CCC(O[C@H]4C[C@H](Oc5cc(N6C7CCC6CN(c6cc(-c8ccccc8O)nnc6N)C7)ccn5)C4)CC3)CC2)no1 (relative stereo) [Compound 48, (2S,4R)-N-[(1S)-1-(4-chlorophenyl)ethyl]-4-hydroxy-1-[(2R*)-3-methyl-2-{3-[4-({4-[(1rs,3rs)-3-[(4-{3-[3-amino-6-(2-hydroxyphenyl)pyridazin-4-yl]-3,8-diazabicyclo[3.2.1]octan-8-yl}pyridin-2-yl)oxy]cyclobutoxy]piperidin-1-yl}methyl)piperidin-1-yl]-1,2-oxazol-5-yl}butanoyl]pyrrolidine-2-carboxamide]	10 to 30	> 75
CC(C)[C@@H](C(=O)N1C[C@H](O)C[C@H]1C(=O)N[C@@H](C)c1ccc(-c2ccnn2C)cc1)c1cc(N2CCC(CN3CCC(O[C@H]4C[C@H](N5CCC(C(C)n6cc(C#Cc7cc(-c8ccccc8O)nnc7N)cn6)CC5)C4)CC3)CC2)no1 (stereo partly drawn) [Compound 42, (2S,4R)-4-hydroxy-N-[(1S)-1-[4-(1-methyl-1H-pyrazol-5-yl)phenyl]ethyl]-1-[(2R)-3-methyl-2-{3-[4-({4-[(1r,3r)-3-{4-[1-(4-{2-[3-amino-6-(2-hydroxyphenyl)pyridazin-4-yl]ethynyl}-1H-pyrazol-1-yl)ethyl]piperidin-1-yl}cyclobutoxy]piperidin-1-yl}methyl)piperidin-1-yl]-1,2-oxazol-5-yl}butanoyl]pyrrolidine-2-carboxamide]	< 2.5	> 75
CC(C)[C@@H](C(=O)N1C[C@H](O)C[C@H]1C(=O)N[C@@H](C)c1ccc(C#N)cc1)c1cc(N2CCC(OCCN3CCC(Oc4cc(N5CCN(c6cc(-c7ccccc7O)nnc6N)CC5)ccn4)CC3)CC2)no1 [Compound 155, (2S,4R)-1-[(2R)-2-{3-[4-(2-{4-[(4-{4-[3-amino-6-(2-hydroxyphenyl)pyridazin-4-yl]piperazin-1-yl}pyridin-2-yl)oxy]piperidin-1-yl}ethoxy)piperidin-1-yl]-1,2-oxazol-5-yl}-3-methylbutanoyl]-N-[(1S)-1-(4-cyanophenyl)ethyl]-4-hydroxypyrrolidine-2-carboxamide]	10 to 30	> 75
Cc1ncsc1-c1ccc([C@H](C)NC(=O)[C@@H]2C[C@@H](O)CN2C(=O)[C@@H](c2cc(N3CCC(CN4CCC(CN5CCC6(CC5)CC(N5CCC(C(C)n7cc(-c8cc(-c9ccccc9O)nnc8N)cn7)CC5)C6)CC4)CC3)no2)C(C)C)cc1 (stereo partly drawn) [Compound 31, (2S,4R)-1-[(2R)-2-[3-(4-{[4-({2-[4-(1-{4-[3-amino-6-(2-hydroxyphenyl)pyridazin-4-yl]-1H-pyrazol-1-yl}ethyl)piperidin-1-yl]-7-azaspiro[3.5]nonan-7-yl}methyl)piperidin-1-yl]methyl}piperidin-1-yl)-1,2-oxazol-5-yl]-3-methylbutanoyl]-4-hydroxy-N-[(1S)-1-[4-(4-methyl-1,3-thiazol-5-yl)phenyl]ethyl]pyrrolidine-2-carboxamide]	< 2.5	> 75
Cc1ncsc1-c1ccc([C@H](C)NC(=O)[C@@H]2C[C@@H](O)CN2C(=O)[C@@H](c2cc(N3CCC(CN4CCC5(CC4)CC(N4CCN(CC6(O)CCN(c7cc(-c8ccccc8O)nnc7N)CC6)CC4)C5)CC3)no2)C(C)C)cc1 [Compound 122, (2S,4R)-1-[(2R)-2-{3-[4-({2-[4-({1-[3-amino-6-(2-hydroxyphenyl)pyridazin-4-yl]-4-hydroxypiperidin-4-yl}methyl)piperazin-1-yl]-7-azaspiro[3.5]nonan-7-yl}methyl)piperidin-1-yl]-1,2-oxazol-5-yl}-3-methylbutanoyl]-4-hydroxy-N-[(1S)-1-[4-(4-methyl-1,3-thiazol-5-yl)phenyl]ethyl]pyrrolidine-2-carboxamide]	< 2.5	> 75
